Results as given in ChEMBL document CHEMBL2413072, “Synthesis and in vitro anticancer studies of novel C-2 arylidene congeners of lantadenes” (2013).

How the values were obtained:
Type in all cases: functional
A549 = experiment: Growth inhibition of human A549/ATCC cells assessed as cell growth at 10 uM by sulforhodamine B assay; settings: read-out: Activity
MOLT-4 = experiment: Growth inhibition of human MOLT4 cells assessed as growth inhibition at 10 uM by sulforhodamine B assay; settings: read-out: GI
NCI-H322M = experiment: Growth inhibition of human NCI-H322M cells assessed as growth inhibition at 10 uM by sulforhodamine B assay; settings: read-out: GI
UACC-62 = experiment: Growth inhibition of human UACC62 cells assessed as growth inhibition at 10 uM by sulforhodamine B assay; settings: read-out: GI
MDA-MB-468 [1] = experiment: Growth inhibition of human MDA-MB-468 cells assessed as growth inhibition at 10 uM by sulforhodamine B assay; settings: read-out: GI
SF-295 [2] = experiment: Growth inhibition of human SF295 cells assessed as growth inhibition at 10 uM by sulforhodamine B assay; settings: read-out: GI
ACHN = experiment: Growth inhibition of human ACHN cells assessed as growth inhibition at 10 uM by sulforhodamine B assay; settings: read-out: GI
NCI-H522 = experiment: Growth inhibition of human NCI-H522 cells assessed as cell growth at 10 uM by sulforhodamine B assay; settings: read-out: Activity
OVCAR-3 = experiment: Growth inhibition of human OVCAR3 cells assessed as growth inhibition at 10 uM by sulforhodamine B assay; settings: read-out: GI
SN12C = experiment: Growth inhibition of human SN12C cells assessed as growth inhibition at 10 uM by sulforhodamine B assay; settings: read-out: GI
HCT-116 [3] = experiment: Growth inhibition of human HCT116 cells assessed as cell growth at 10 uM by sulforhodamine B assay; settings: read-out: Activity
SNB-75 = experiment: Growth inhibition of human SNB75 cells assessed as cell growth at 10 uM by sulforhodamine B assay; settings: read-out: Activity
HCT-15 [4] = experiment: Growth inhibition of human HCT15 cells assessed as growth inhibition at 10 uM by sulforhodamine B assay; settings: read-out: GI
SW-620 = experiment: Growth inhibition of human SW620 cells assessed as cell growth at 10 uM by sulforhodamine B assay; settings: read-out: Activity
[5] = Growth inhibition of human HCC2998 cells assessed as cell growth at 10 uM by sulforhodamine B assay; settings: HCC 2998, read-out: Activity
LOX IMVI = experiment: Growth inhibition of human LOXIMVI cells assessed as growth inhibition at 10 uM by sulforhodamine B assay; settings: read-out: GI
OVCAR-4 [6] = experiment: Growth inhibition of human OVCAR4 cells assessed as cell growth at 10 uM by sulforhodamine B assay; settings: read-out: Activity
786-0 = experiment: Growth inhibition of human 786-0 cells assessed as growth inhibition at 10 uM by sulforhodamine B assay; settings: read-out: GI
HOP-62 [7] = experiment: Growth inhibition of human HOP62 cells assessed as growth inhibition at 10 uM by sulforhodamine B assay; settings: read-out: GI
NCI-H226 = experiment: Growth inhibition of human NCI-H226 cells assessed as growth inhibition at 10 uM by sulforhodamine B assay; settings: read-out: GI
OVCAR-5 = experiment: Growth inhibition of human OVCAR5 cells assessed as growth inhibition at 10 uM by sulforhodamine B assay; settings: read-out: GI
HOP-62 [8] = experiment: Growth inhibition of human HOP62 cells assessed as cell growth at 10 uM by sulforhodamine B assay; settings: read-out: Activity
OVCAR-8 [9] = experiment: Growth inhibition of human OVCAR8 cells assessed as growth inhibition at 10 uM by sulforhodamine B assay; settings: read-out: GI
UACC-257 = experiment: Growth inhibition of human UACC257 cells assessed as cell growth at 10 uM by sulforhodamine B assay; settings: read-out: Activity
UO-31 = experiment: Growth inhibition of human UO31 cells assessed as cell growth at 10 uM by sulforhodamine B assay; settings: read-out: Activity
OVCAR-4 [10] = experiment: Growth inhibition of human OVCAR4 cells assessed as growth inhibition at 10 uM by sulforhodamine B assay; settings: read-out: GI
SK-MEL-28 = experiment: Growth inhibition of human SK-MEL-28 cells assessed as cell growth at 10 uM by sulforhodamine B assay; settings: read-out: Activity
OVCAR-8 [11] = experiment: Growth inhibition of human OVCAR8 cells assessed as cell growth at 10 uM by sulforhodamine B assay; settings: read-out: Activity
MDA-MB-435 = experiment: Growth inhibition of human MDA-MB-435 cells assessed as cell growth at 10 uM by sulforhodamine B assay; settings: read-out: Activity
HL-60(TB) = experiment: Growth inhibition of human HL-60(TB) cells assessed as cell growth at 10 uM by sulforhodamine B assay; settings: read-out: Activity
COLO 205 = experiment: Growth inhibition of human COLO205 cells assessed as cell growth at 10 uM by sulforhodamine B assay; settings: read-out: Activity
K562 = experiment: Growth inhibition of human K562 cells assessed as growth inhibition at 10 uM by sulforhodamine B assay; settings: read-out: GI
SR = experiment: Growth inhibition of human SR cells assessed as cell growth at 10 uM by sulforhodamine B assay; settings: read-out: Activity
Malme-3M [12] = experiment: Growth inhibition of human MALME-3M cells assessed as growth inhibition at 10 uM by sulforhodamine B assay; settings: read-out: GI
SK-OV-3 = experiment: Growth inhibition of human SKOV3 cells assessed as cell growth at 10 uM by sulforhodamine B assay; settings: read-out: Activity
[13] = Growth inhibition of human NCI-ADR-RES cells assessed as cell growth at 10 uM by sulforhodamine B assay; settings: read-out: Activity
Malme-3M [14] = experiment: Growth inhibition of human MALME-3M cells assessed as cell growth at 10 uM by sulforhodamine B assay; settings: read-out: Activity
RPMI-8226 [15] = experiment: Growth inhibition of human RPMI8226 cells assessed as cell growth at 10 uM by sulforhodamine B assay; settings: read-out: Activity
HCT-15 [16] = experiment: Growth inhibition of human HCT15 cells assessed as cell growth at 10 uM by sulforhodamine B assay; settings: read-out: Activity
A498 = experiment: Growth inhibition of human A498 cells assessed as cell growth at 10 uM by sulforhodamine B assay; settings: read-out: Activity
NCI-H460 = experiment: Growth inhibition of human NCI-H460 cells assessed as growth inhibition at 10 uM by sulforhodamine B assay; settings: read-out: GI
SK-MEL-5 = experiment: Growth inhibition of human SK-MEL-5 cells assessed as growth inhibition at 10 uM by sulforhodamine B assay; settings: read-out: GI
IGROV-1 = experiment: Growth inhibition of human IGROV1 cells assessed as cell growth at 10 uM by sulforhodamine B assay; settings: read-out: Activity
SF-295 [17] = experiment: Growth inhibition of human SF295 cells assessed as cell growth at 10 uM by sulforhodamine B assay; settings: read-out: Activity
MDA-MB-468 [18] = experiment: Growth inhibition of human MDA-MB-468 cells assessed as cell growth at 10 uM by sulforhodamine B assay; settings: read-out: Activity
RPMI-8226 [19] = experiment: Growth inhibition of human RPMI8226 cells assessed as growth inhibition at 10 uM by sulforhodamine B assay; settings: read-out: GI
TK-10 = experiment: Growth inhibition of human TK10 cells assessed as cell growth at 10 uM by sulforhodamine B assay; settings: read-out: Activity
HCT-116 [20] = experiment: Growth inhibition of human HCT116 cells assessed as growth inhibition at 10 uM by sulforhodamine B assay; settings: read-out: GI

Compound CC1(C)C[C@@H](O)[C@]2(C(=O)O)CC[C@]3(C)C(=CC[C@@H]4[C@@]5(C)C/C(=C\C=C\c6ccccc6)C(=O)C(C)(C)[C@@H]5CC[C@]43C)[C@@H]2C1 has a growth at 10 µM (A549) of 22.7%, an inhibition of growth at 10 µM (MOLT-4) of 55.6% and an inhibition of growth at 10 µM (NCI-H322M) of 28.1%. The inhibition of growth at 10 µM (UACC-62) was 49.6%, the inhibition of growth at 10 µM (MDA-MB-468 [1]) was 27.4% and the inhibition of growth at 10 µM (SF-295 [2]) was 76.5%. The inhibition of growth at 10 µM (ACHN) was 58.1%, the growth at 10 µM (NCI-H522) was 47.7% and the inhibition of growth at 10 µM (OVCAR-3) was 42.7%. For the same compound, the inhibition of growth at 10 µM (SN12C) was 54.5%, the growth at 10 µM (HCT-116 [3]) was 17.5% and the growth at 10 µM (SNB-75) was 72.1%. It also gave an inhibition of growth at 10 µM (HCT-15 [4]) of 64.8%, a growth at 10 µM (SW-620) of 55.8% and a growth at 10 µM [5] of 82.8%. For the same compound, the inhibition of growth at 10 µM (LOX IMVI) was 38.6%, the growth at 10 µM (OVCAR-4 [6]) was 54.2% and the inhibition of growth at 10 µM (786-0) was 21.9%. The inhibition of growth at 10 µM (HOP-62 [7]) was 37.2%, the inhibition of growth at 10 µM (NCI-H226) was 27.7% and the inhibition of growth at 10 µM (OVCAR-5) was < 10%. For the same compound, the growth at 10 µM (HOP-62 [8]) was 62.8%, the inhibition of growth at 10 µM (OVCAR-8 [9]) was 57% and the growth at 10 µM (UACC-257) was 62%. It also gave a growth at 10 µM (UO-31) of 40.3%, an inhibition of growth at 10 µM (OVCAR-4 [10]) of 45.8% and a growth at 10 µM (SK-MEL-28) of 74.2%. For the same compound, the growth at 10 µM (OVCAR-8 [11]) was 43%, the growth at 10 µM (MDA-MB-435) was 72.3% and the growth at 10 µM (HL-60(TB)) was 38.8%. The growth at 10 µM (COLO 205) was 97.8%, the inhibition of growth at 10 µM (K562) was 67.6% and the growth at 10 µM (SR) was 62.6%. It also gave an inhibition of growth at 10 µM (Malme-3M [12]) of 15.5%, a growth at 10 µM (SK-OV-3) of 85.7% and a growth at 10 µM [13] of 76.2%. The growth at 10 µM (Malme-3M [14]) was 84.5%, the growth at 10 µM (RPMI-8226 [15]) was 15.6% and the growth at 10 µM (HCT-15 [16]) was 35.2%. For the same compound, the growth at 10 µM (A498) was 95.7%, the inhibition of growth at 10 µM (NCI-H460) was 54.2% and the inhibition of growth at 10 µM (SK-MEL-5) was 26.3%. It also gave a growth at 10 µM (IGROV-1) of 60.8%, a growth at 10 µM (SF-295 [17]) of 23.5% and a growth at 10 µM (MDA-MB-468 [18]) of 72.6%. It also gave an inhibition of growth at 10 µM (RPMI-8226 [19]) of 84.4%, a growth at 10 µM (TK-10) of 88.3% and an inhibition of growth at 10 µM (HCT-116 [20]) of 82.5%.
